# Literature values as cited in patent publication US20250241301A1, “COMPOSITIONS AND METHODS FOR INHIBITING PATHOGEN GROWTH ON PLANTS AND IMPROVING CROP SAFETY” (priority 2024, published 2025).
# System: potatoes
# Settings: T2H applied alone; cited from earlier work
smiles,measurement,value
"CCC/C=C/C=O [T2H, trans-2-hexenal]",skin pitting/lesion damage to potatoes,skin pitting/lesion damage
